From the supplement of paper PMC13207355

How the values were obtained:
Conditions in all cases: exposure time: 72 h
[1] = system: E13 (patient-derived glioblastoma stem cells of classical subtype); experiment: phenotypic distance (Euclidean, principal components) from DMSO controls (arbitrary units); higher = stronger morphological change
[2] = system: E31 (patient-derived glioblastoma stem cells of proneural subtype); experiment: as above
[3] = system: E28 (patient-derived glioblastoma stem cells of classical subtype); experiment: as above
[4] = system: FT3469 (normal neural stem cell line); experiment: as above
[5] = system: E34 (patient-derived glioblastoma stem cells of proneural subtype); experiment: as above
[6] = system: E57 (patient-derived glioblastoma stem cells of mesenchymal subtype); experiment: as above
[7] = system: E21 (patient-derived glioblastoma stem cells of mesenchymal subtype); experiment: as above
[8] = system: E13; experiment: surviving fraction (nuclei count normalised to DMSO); higher = more cells surviving (less toxic)
[9] = system: E31; experiment: as above
[10] = system: E28; experiment: as above
[11] = system: FT3469; experiment: as above
[12] = system: E34; experiment: as above
[13] = system: E57; experiment: as above
[14] = system: E21; experiment: as above
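For phenotypic distance (Euclidean, principal components) from DMSO controls in this document: cell Painting imaging in 384-well plates, CellProfiler features reduced to at least 20 principal components, Euclidean distance versus same-plate DMSO vehicle wells (0.1% v/v), median over six images per well.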
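For surviving fraction (nuclei count normalised to DMSO) in this document: nuclei counted by high-content imaging of Hoechst-stained cells in laminin-coated 384-well plates, relative to 0.1% DMSO vehicle wells, with staurosporine as cell-death control.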

c1ccc2c(c1)[I+]c1ccccc1-2 [Diphenyleneiodonium chloride]
Conditions	phenotypic distance	surviving fraction
[1], 4.1 nM	1.34	–
[1], 12.3 nM	4.24	–
[1], 37 nM	1.9	–
[1], 111.1 nM	2.21	–
[1], 333.3 nM	3.13	–
[1], 1000 nM	5.26	–
[1], 3000 nM	5.24	–
[2], 4.1 nM	1.12	–
[2], 12.3 nM	1.08	–
[2], 37 nM	2.15	–
[2], 111.1 nM	2.63	–
[2], 333.3 nM	2.78	–
[2], 1000 nM	3.14	–
[2], 3000 nM	4.34	–
[3], 4.1 nM	0.894	–
[3], 12.3 nM	0.602	–
[3], 37 nM	0.781	–
[3], 111.1 nM	1.28	–
[3], 333.3 nM	2.53	–
[3], 1000 nM	2.98	–
[3], 3000 nM	3.16	–
[4], 4.1 nM	1.56	–
[4], 12.3 nM	1.64	–
[4], 37 nM	1.95	–
[4], 111.1 nM	1.56	–
[4], 333.3 nM	2.13	–
[4], 1000 nM	2.73	–
[4], 3000 nM	2.8	–
[5], 4.1 nM	1.01	–
[5], 12.3 nM	1.55	–
[5], 37 nM	1.65	–
[5], 111.1 nM	2.16	–
[5], 333.3 nM	1.7	–
[5], 1000 nM	3.29	–
[5], 3000 nM	4.68	–
[6], 4.1 nM	1.31	–
[6], 12.3 nM	1.36	–
[6], 37 nM	1.73	–
[6], 111.1 nM	4.12	–
[6], 333.3 nM	6.27	–
[6], 1000 nM	6.54	–
[6], 3000 nM	7.74	–
[7], 4.1 nM	2.03	–
[7], 12.3 nM	1.85	–
[7], 37 nM	1.83	–
[7], 111.1 nM	3.51	–
[7], 333.3 nM	2.93	–
[7], 1000 nM	3.58	–
[7], 3000 nM	4.29	–
[8], 4.1 nM	–	0.616
[8], 12.3 nM	–	0.605
[8], 37 nM	–	0.464
[8], 111.1 nM	–	0.47
[8], 333.3 nM	–	0.417
[8], 1000 nM	–	0.331
[8], 3000 nM	–	0.251
[9], 4.1 nM	–	0.886
[9], 12.3 nM	–	0.765
[9], 37 nM	–	0.518
[9], 111.1 nM	–	0.31
[9], 333.3 nM	–	0.371
[9], 1000 nM	–	0.338
[9], 3000 nM	–	0.216
[10], 4.1 nM	–	0.654
[10], 12.3 nM	–	0.916
[10], 37 nM	–	0.853
[10], 111.1 nM	–	0.524
[10], 333.3 nM	–	0.392
[10], 1000 nM	–	0.319
[10], 3000 nM	–	0.212
[11], 4.1 nM	–	0.771
[11], 12.3 nM	–	0.707
[11], 37 nM	–	0.742
[11], 111.1 nM	–	0.753
[11], 333.3 nM	–	0.59
[11], 1000 nM	–	0.473
[11], 3000 nM	–	0.449
[12], 4.1 nM	–	0.75
[12], 12.3 nM	–	0.634
[12], 37 nM	–	0.521
[12], 111.1 nM	–	0.586
[12], 333.3 nM	–	0.555
[12], 1000 nM	–	0.519
[12], 3000 nM	–	0.411
[13], 4.1 nM	–	0.876
[13], 12.3 nM	–	0.876
[13], 37 nM	–	0.767
[13], 111.1 nM	–	0.426
[13], 333.3 nM	–	0.291
[13], 1000 nM	–	0.266
[13], 3000 nM	–	0.21
[14], 4.1 nM	–	0.827
[14], 12.3 nM	–	0.767
[14], 37 nM	–	0.672
[14], 111.1 nM	–	0.559
[14], 333.3 nM	–	0.548
[14], 1000 nM	–	0.525
[14], 3000 nM	–	0.401
